The experiment deals with IL-17 production in myelin-specific CD4 T cells. The experiment in a line: Inhibition of IL-17 production in myelin-specific CD4 T cells (splenocytes activated with MBP Ac1-11 plus TGF-β and IL-6; flow cytometry, ELISA). The following applies: 3 days; for suppression of IL-17 production in myelin-specific CD4 T cells (in words): in vitro; for suppression of IL-17 production: murine myelin-specific CD4 T cells. Type of experiment: cell-based, mice. How it is done: In vitro culture of splenocytes from TCR transgenic mice. Splenocytes were prepared from naïve 5-10-wk-old Vα2.3/Vβ8.2 TCR transgenic mice and cultured in 24-well plates at […] with irradiated B10.PL splenocytes (6×10^8 cells/well). Cells were activated with of MBP Ac1-11 (10 μg/ml) and different combination of cytokines or neutralizing antibodies for cytokines to differentiate effector T helper cells. Cytokines and antibody concentrations were as follows: 0.5 ng/ml IL-12, 25 ng/ml IL-6, 1 ng/ml TGFβ1, 2 μg/ml anti-IFNγ, 1 μg/ml anti-IL-12, 2 μg/ml anti-IL-4, and 0.35 μg/ml anti-TGFβ (Yang, Weiner et al. 2009).
ELISA Assay. ELISA was performed to detect the expression of IL-17 and IFNγ in supernatant. Purified anti-mouse IL-17 primary antibody (BD bioscience) was diluted in 0.1 M NaHCO3 (pH 8.2) at 2 μg/ml while purified anti-mouse IFNγ primary antibody was diluted in 0.1M NaHCO3 (pH 9.5) at 2 μg/ml. Immunolon II plates (Dynatech Laboratories) were coated with 50 μl of primary antibodies per well and incubated overnight at 4° C. The plates were washed twice with PBS/0.05% Tween 20. The plates were blocked with 200 μl of 1% BSA in PBS per well for 2 h. The plates were washed twice with PBS/0.05% Tween 20, and 100 μl of supernatants were added in duplicate. The plates were incubated over-night at 4° C. and washed four times with PBS/0.05% Tween 20. Biotinylated rat anti-mouse secondary antibody (BD bioscience) were diluted in PBS/1% BSA, 100 μl of 1 μg/ml biotinylated antibody was added to each well, and plates were incubated at room temperature for 1 h. The plates were washed six times with PBS/0.05% Tween 20, and 100 μl avidin-peroxidase was added at 2.5 μg/ml and incubated for 30 min. The plates were washed eight times with PBS/0.05% Tween 20, and 100 μl ABTS substrate containing 0.03% H2O2 (for IL-17) or TMB substrate (for IFNγ) was added to each well. The plate was monitored for 10-20 min for color development and read at A 405. A standard curve was generated from cytokine standard, and the cytokine concentration in the samples was calculated.
Intracellular staining and flow cytometric analysis. Flow cytometric analysis was performed to evaluate the expression of surface markers and T-bet in CD4 T cells, as previously described (Yang, Weiner et al. 2009). Briefly, splenocytes were activated with antigen or αCD3/CD28 for 48 to 72 hours. Cells were then collected, washed, and resuspended in staining buffer (1% BSA in PBS). The cells were incubated with mAbs to the cell-surface markers for 30 min at 4° C. After washing twice with staining buffer, cells were fixed and permeabilized using Cytofix/Cytoperm solution for 20 min at 4° C. […] 80,000-100,000 live cell events were acquired on a FACSCanto (BD) and analyzed using FlowJo software (Tree Star, Inc.). […]
On the technique in general: A flow cytometer gives signals particle by particle.

“Also recorded” adds a separate entry of the source.

Turning to `NS(=O)(=O)c1cccc2c1C(=O)c1cccc(O)c1C2=O` [LLL12], the “suppression of IL-17 production in myelin-specific CD4 T cells (in words)” value is listed as “inhibition of IL-17”.
In the case of `CN(C)C(=O)Oc1cccc2c1C(=O)c1cccc(S(N)(=O)=O)c1C2=O` [LLL12b], the “suppression of IL-17 production in myelin-specific CD4 T cells (in words)” value was “significantly suppress IL-17 production; also recorded: inhibits myelin-specific IL-17 production in a dose-dependent manner”. The “suppression of IL-17 production” value (0.25 μM) is 44%. The “suppression of IL-17 production” value (0.50 μM) was 72%.
